We go through 30 molecules from ChEMBL document CHEMBL5584339, “Design, Synthesis, and Evaluation of the Antitubercular Activity of 5-Phenyl Substituted-5, 6-dihydropyrido[2, 3-d]pyrimidine-4, 7(3H, 8H)-dione Compounds” (J Med Chem, 2024).

Structures are written as SMILES. Values after ≈ are worked out from the molar mass of the structure shown. Bounds are passed on as bounds.

Common to all, as to assay type: functional
In experiment [1] the test system is Mycobacterium tuberculosis. Kind of experiment: Antitubercular activity against isoniazid/streptomycin/rifampicin/ethambutol/p-aminosalicylate/prothionamide/capreomycin resistant Mycobacterium tuberculosis 14862 incubated for 7 days by alamar blue assay. Conditions: Mycobacterium tuberculosis, 14862, 168 h; time 7 day. On the technique in general: The colour change of resazurin is a common sign of viable cells or microbes.

Experiment [2] concerns Mycobacterium tuberculosis. Kind of experiment: Antitubercular activity against isoniazid/streptomycin/rifampicin/ethambutol/p-aminosalicylate/rifabutin/ofloxacin resistant Mycobacterium tuberculosis 13946 incubated for 7 days by alamar blue assay. Particulars: Mycobacterium tuberculosis, 13946, 168 h; time 7 day.
The subject of experiment [3] is Mycobacterium tuberculosis. Briefly: Antitubercular activity against isoniazid/rifampicin resistant Mycobacterium tuberculosis 16995 incubated for 7 days by alamar blue assay. Conditions: Mycobacterium tuberculosis, 16995, 168 h; time 7 day.
Experiment [4] concerns Mycobacterium tuberculosis. Kind of experiment: Antitubercular activity against isoniazid/rifampicin resistant Mycobacterium tuberculosis 16833 incubated for 7 days by alamar blue assay. Particulars: Mycobacterium tuberculosis, 16833, 168 h; time 7 day.
Experiment [5] relates to Mycobacterium tuberculosis. Briefly: Antitubercular activity against isoniazid/rifampicin resistant Mycobacterium tuberculosis 12525 incubated for 7 days by alamar blue assay. Particulars: Mycobacterium tuberculosis, 12525, 168 h; time 7 day.

What is called MIC is the smallest concentration in the dilution series that meets the test's criterion for growth inhibition.

Consider `C=CCSc1nc2c(c(=O)[nH]1)C(c1ccc(OC)cc1)CC(=O)N2` (stereo not given), for which the minimal inhibitory concentration (MIC) came to 1 µg/mL (≈ 2.91 µM) in experiment [1]; 1 µg/mL (≈ 2.91 µM) in experiment [2]; 2 µg/mL (≈ 5.82 µM) in experiment [3]; 1 µg/mL (≈ 2.91 µM) in experiment [4]; 2 µg/mL (≈ 5.82 µM) in experiment [5].
In experiment [1], `CCC[S+]([O-])c1nc2c(c(=O)[nH]1)[C@@H](c1ccc(OC)cc1[N+](=O)[O-])CC(=O)N2` (stereo not given in full) had a minimal inhibitory concentration (MIC) of more than 32 µg/mL.
For `CCCOc1ccc(C2CC(=O)Nc3nc(SCCC)[nH]c(=O)c32)c(O)c1` (stereo not given), the MIC in experiment [1] was determined as 2 µg/mL (≈ 5.14 µM); in experiment [2], 8 µg/mL (≈ 20.5 µM); in experiment [3], 8 µg/mL (≈ 20.5 µM); in experiment [4] it was 2 µg/mL (≈ 5.14 µM); in experiment [5], 8 µg/mL (≈ 20.5 µM).
Turning to `C=CCSc1nc2c(c(=O)[nH]1)C(c1ccc(OC)c(O)c1)CC(=O)N2` (stereo not given), the MIC stood at 15.6 µg/mL (≈ 43.5 µM) in experiment [1]; 4 µg/mL (≈ 11.1 µM) in experiment [2]; 16 µg/mL (≈ 44.5 µM) in experiment [3]; 4 µg/mL (≈ 11.1 µM) in experiment [4]; 8 µg/mL (≈ 22.3 µM) in experiment [5].
For the molecule `CCCSc1nc2c(c(=O)[nH]1)C(c1ccc(OCC)cc1)CC(=O)N2` (stereo not given), the MIC in experiment [1] came out at 0.25 µg/mL (≈ 0.696 µM); in experiment [2], 2 µg/mL (≈ 5.56 µM); in experiment [3], 1 µg/mL (≈ 2.78 µM); in experiment [4], 0.5 µg/mL (≈ 1.39 µM); in experiment [5], 1 µg/mL (≈ 2.78 µM).
Regarding `CCCOc1ccc(C2CC(=O)Nc3nc(SCCC)[nH]c(=O)c32)cc1` (stereo not given), the MIC in experiment [1] turned out to be 2 µg/mL (≈ 5.36 µM); in experiment [2] it was 1 µg/mL (≈ 2.68 µM); in experiment [3] it was 2 µg/mL (≈ 5.36 µM); in experiment [4], 0.5 µg/mL (≈ 1.34 µM); in experiment [5], 2 µg/mL (≈ 5.36 µM).
As for `CCCSc1nc2c(c(=O)[nH]1)C(c1ccc(OC)c(O)c1)CC(=O)N2` (stereo not given), the MIC in experiment [1] was determined as 8 µg/mL (≈ 22.1 µM); in experiment [2], 4 µg/mL (≈ 11.1 µM); in experiment [3] it was 8 µg/mL (≈ 22.1 µM); in experiment [4], 4 µg/mL (≈ 11.1 µM); in experiment [5], 8 µg/mL (≈ 22.1 µM).
As for `CCCS(=O)(=O)c1nc2c(c(=O)[nH]1)[C@H](c1ccc(OC)cc1[N+](=O)[O-])CC(=O)N2`, the MIC in experiment [1] was more than 32 µg/mL.
In experiment [1], `CCC[S+]([O-])c1nc2c(c(=O)[nH]1)[C@H](c1ccc(OC)cc1)CC(=O)N2` (stereo not given in full) yielded a minimum inhibitory concentration (MIC) of more than 32 µg/mL.
In experiment [1], `CCCS(=O)(=O)c1nc2c(c(=O)[nH]1)[C@H](c1ccc(OC)cc1)CC(=O)N2` returned a minimum inhibitory concentration (MIC) of more than 32 µg/mL.
Turning to `CCCSc1nc2c(c(=O)[nH]1)C(c1ccc(OC)c(N)c1)CC(=O)N2` (stereo not given), the minimum inhibitory concentration (MIC) in experiment [1] came out at 4 µg/mL (≈ 11.1 µM); in experiment [2], 16 µg/mL (≈ 44.4 µM); in experiment [3], 8 µg/mL (≈ 22.2 µM); in experiment [4], 4 µg/mL (≈ 11.1 µM); in experiment [5], 8 µg/mL (≈ 22.2 µM).
For the molecule `CCCSc1nc2c(c(=O)[nH]1)C(c1ccc(OC)cc1)CC(=O)N2` (racemic), the minimal inhibitory concentration (MIC) amounted to 0.25 µg/mL (≈ 0.724 µM) in experiment [1]; 0.25 µg/mL (≈ 0.724 µM) in experiment [2]; 0.5 µg/mL (≈ 1.45 µM) in experiment [3]; 0.25 µg/mL (≈ 0.724 µM) in experiment [4]; 0.5 µg/mL (≈ 1.45 µM) in experiment [5].
For the molecule `CCCSc1nc2c(c(=O)[nH]1)[C@@H](c1ccc(OC)cc1[N+](=O)[O-])CC(=O)N2`, the MIC in experiment [1] stood at 0.059 µg/mL (≈ 0.151 µM); in experiment [2], 0.125 µg/mL (≈ 0.32 µM); in experiment [3], 0.125 µg/mL (≈ 0.32 µM); in experiment [4], 0.06 µg/mL (≈ 0.154 µM); in experiment [5] it was 0.125 µg/mL (≈ 0.32 µM).
In experiment [1], `CCCSc1nc2c(c(=O)[nH]1)[C@H](c1ccc(OC)cc1[N+](=O)[O-])CC(=O)N2` gave a minimum inhibitory concentration (MIC) of 13.4 µg/mL (≈ 34.4 µM).
With `C=CCSc1nc2c(c(=O)[nH]1)C(c1ccc(OC)cc1[N+](=O)[O-])CC(=O)N2` (stereo not given), the MIC in experiment [1] amounted to 1 µg/mL (≈ 2.57 µM); in experiment [2], 2 µg/mL (≈ 5.15 µM); in experiment [3], 2 µg/mL (≈ 5.15 µM); in experiment [4], 1 µg/mL (≈ 2.57 µM); in experiment [5] it was 2 µg/mL (≈ 5.15 µM).
As for `CO[C@H]1/C=C/O[C@@]2(C)Oc3c(C)c(O)c4c(O)c(c(/C=N/N5CCN(C)CC5)c(O)c4c3C2=O)NC(=O)/C(C)=C\C=C\[C@H](C)[C@H](O)[C@@H](C)[C@@H](O)[C@@H](C)[C@H](OC(C)=O)[C@@H]1C` [RIFAMPIN], the MIC in experiment [1], in experiment [2], in experiment [3], in experiment [4] and in experiment [5] was more than 10 µg/mL in each case.
For `CCCCSc1nc2c(c(=O)[nH]1)C(c1ccc(OC)cc1)CC(=O)N2` (stereo not given), the MIC in experiment [1] is 1 µg/mL (≈ 2.78 µM); in experiment [2], 2 µg/mL (≈ 5.56 µM); in experiment [3], 2 µg/mL (≈ 5.56 µM); in experiment [4], 1 µg/mL (≈ 2.78 µM); in experiment [5], 2 µg/mL (≈ 5.56 µM).
Take `NNC(=O)c1ccncc1` [ISONIAZID]: the MIC in experiment [1], in experiment [2], in experiment [3], in experiment [4] and in experiment [5] was more than 10 µg/mL in each case.
For the molecule `C=CCSc1nc2c(c(=O)[nH]1)C(c1ccc(OCC)cc1)CC(=O)N2` (stereo not given), the MIC in experiment [1] is 1 µg/mL (≈ 2.8 µM); in experiment [2], 4 µg/mL (≈ 11.2 µM); in experiment [3], 4 µg/mL (≈ 11.2 µM); in experiment [4], 4 µg/mL (≈ 11.2 µM); in experiment [5], 4 µg/mL (≈ 11.2 µM).
As for `CCC[S+]([O-])c1nc2c(c(=O)[nH]1)[C@H](c1ccc(OC)cc1[N+](=O)[O-])CC(=O)N2` (stereo not given in full), the MIC in experiment [1] is more than 32 µg/mL.
As for `C=CCSc1nc2c(c(=O)[nH]1)C(c1ccc(OC)cc1O)CC(=O)N2` (stereo not given), the MIC came to 13.3 µg/mL (≈ 36.9 µM) in experiment [1]; 8 µg/mL (≈ 22.3 µM) in experiment [2]; 32 µg/mL (≈ 89 µM) in experiment [3]; 8 µg/mL (≈ 22.3 µM) in experiment [4]; 16 µg/mL (≈ 44.5 µM) in experiment [5].
For `CCCS(=O)(=O)c1nc2c(c(=O)[nH]1)[C@@H](c1ccc(OC)cc1[N+](=O)[O-])CC(=O)N2`, the MIC in experiment [1] is more than 32 µg/mL.
On to `CCCSc1nc2c(c(=O)[nH]1)C(c1ccc(OC)cc1O)CC(=O)N2` (stereo not given), for which the MIC in experiment [1] is 4 µg/mL (≈ 11.1 µM); in experiment [2], 2 µg/mL (≈ 5.53 µM); in experiment [3], 4 µg/mL (≈ 11.1 µM); in experiment [4], 1 µg/mL (≈ 2.77 µM); in experiment [5], 4 µg/mL (≈ 11.1 µM).
Take `CCCS(=O)(=O)c1nc2c(c(=O)[nH]1)[C@@H](c1ccc(OC)cc1)CC(=O)N2`: the minimal inhibitory concentration (MIC) in experiment [1] is more than 32 µg/mL.
`CCCSc1nc2c(c(=O)[nH]1)[C@H](c1ccc(OC)cc1)CC(=O)N2`: the minimum inhibitory concentration (MIC) in experiment [1] is 12.8 µg/mL (≈ 37.1 µM).
Take `CCCSc1nc2c(c(=O)[nH]1)[C@@H](c1ccc(OC)cc1)CC(=O)N2`: the MIC was 0.06 µg/mL (≈ 0.174 µM) in experiment [1]; 0.125 µg/mL (≈ 0.362 µM) in experiment [2]; 0.125 µg/mL (≈ 0.362 µM) in experiment [3]; 0.06 µg/mL (≈ 0.174 µM) in experiment [4]; 0.06 µg/mL (≈ 0.174 µM) in experiment [5].
In experiment [1], `CCC[S+]([O-])c1nc2c(c(=O)[nH]1)[C@@H](c1ccc(OC)cc1)CC(=O)N2` (stereo not given in full) came in with a minimal inhibitory concentration (MIC) of more than 32 µg/mL.
Take `CCCSc1nc2c(c(=O)[nH]1)C(c1ccc(OC(C)C)cc1)CC(=O)N2` (stereo not given): the MIC was determined as 2 µg/mL (≈ 5.36 µM) in experiment [1]; 1 µg/mL (≈ 2.68 µM) in experiment [2]; 2 µg/mL (≈ 5.36 µM) in experiment [3]; 1 µg/mL (≈ 2.68 µM) in experiment [4]; 4 µg/mL (≈ 10.7 µM) in experiment [5].
Take `CCCSc1nc2c(c(=O)[nH]1)C(c1ccc(OC)cc1[N+](=O)[O-])CC(=O)N2` (racemic): the MIC in experiment [1] was found to be 0.25 µg/mL (≈ 0.64 µM); in experiment [2] it was 1 µg/mL (≈ 2.56 µM); in experiment [3], 0.5 µg/mL (≈ 1.28 µM); in experiment [4], 0.25 µg/mL (≈ 0.64 µM); in experiment [5], 0.5 µg/mL (≈ 1.28 µM).
Turning to `C=CCSc1nc2c(c(=O)[nH]1)C(c1ccc(OCCC)cc1)CC(=O)N2` (stereo not given), the MIC in experiment [1] amounted to 4 µg/mL (≈ 10.8 µM); in experiment [2], 1 µg/mL (≈ 2.69 µM); in experiment [3], 4 µg/mL (≈ 10.8 µM); in experiment [4], 1 µg/mL (≈ 2.69 µM); in experiment [5], 4 µg/mL (≈ 10.8 µM).
